Test results as given in patent publication US10143668B2, “Hydroxy-substituted amino and ammonium derivatives and their medical use” (GRI BIO, INC., priority 2011, dated 2018).
Where “and” joins values, the source holds several entries; their conditions need not be identical. Identical values can stand only once. Counter-ions that a name gives are not always drawn. Like-named read-outs stand apart in the source and are kept apart here. Marks after values point to notes of the source that are not given here.

Columns and labels:
RBL-2H3 cells [1] = experiment: Inhibition of mast cell degranulation (β-hexosaminidase release); assay type: cell-based; details: Rattus norvegicus, RBL-2H3 cells sensitized with anti-DNP IgE, triggered with DNP-HSA
Text: Mast cells are key effector cells involved in allergic and inflammatory diseases, and the Rat Basophilic Leukemia clone 2H3 (RBL-2H3) cell line is a commonly used model of allergen dependent immune modulator release (degranulation) in mast cells. On their surface, they express the high affinity receptor for IgE (FcεRI) Upon binding of antigen-specific IgE to the receptor, cells become sensitized to the IgE specific antigen (allergen). When IgE-sensitized cells then encounter multivalent antigen, the antigen clusters IgE-FcεRI complexes and initiates a signal transduction cascade that leads to degranulation, that is, the release of inflammatory mediators, such as cytokines, eicosanoids, histamine and enzymes. The assay can be used as a screening method to identify immune-modulating compounds, in particular compounds useful in the medical management of allergic and inflammatory diseases and asthma. β-hexosaminidase was previously shown to be released with the same kinetics as histamine (Schwartz et al., J Immunology; 123:1445-1450 (1979)), thus offering a simple means to monitor degranulation. The RBL-2H3 cell line has been successfully used to identify compounds with anti-allergic activity (Choo et al. Planta Med., 69:518-522 (2003)).
Cell Culture: RBL-2H3 cells obtained from the German Collection of Microorganisms and Cell Cultures (ACC312) (Braunschweig, Germany) were maintained in 70% Minimum Essential Medium with Earle's Salts, 20% RPMI 1640 Medium, 10% FBS and 2 mM L-glutamine in 95% air/5% CO2 at 37° C. and routinely checked for mycoplasma contamination. Cells were passaged every 3-4 days; after washing cells once with 35 ml PBS cells were incubated 8 min with 5 ml 0.05% Trypsin-EDTA solution at 37° C. Cells were removed from the incubator, 15 ml culture medium was added and cells were resuspended by repeated pipetting.
Cell seeding: cells were harvested with Trypsin-EDTA as described and 50-100 μl cell suspension seeded into Costar CellBind 24 well cluster plates (no. 3337). Plates were kept for 30 min at RT under the sterile hood before being transferred to the incubator. Cells were used within one or two days after seeding.
For sensitization, cells for immediate use were sensitized 6-12 h after plating; cells to be used the following day were sensitized 26-38 h after plating. Culture plates were removed from the incubator and checked for cell growth and contamination. The medium was discarded and cells were sensitized with anti-DNP IgE (0.4 μg/ml) in 0.4 ml culture medium overnight. Following overnight sensitization, cells were washed with 0.8 ml pre-warmed TyB and 0.38 ml test compound or vehicle control (supplemented or not with 1% FBS) were added to duplicate wells. Samples were adjusted to contain 1% vehicle for test compounds dissolved in organic solvents. Cells were incubated for 1 h at 37° C. At the end of the incubation period, cells were routinely stimulated with 20 μl DNP-HSA (2 μg/ml; final concentration 0.1 μg/ml) diluted in TyB and cells were incubated for 15 min at 37° C. Alternatively, cells were stimulated with 20 μl 5 μM ionomycin (final concentration 0.25 μM) or 20 μl 5 μM thapsigargin (final concentration 0.25 μM), both in the absence or presence of 20 nM PMA (final concentration). […]
MUG substrate solution, 100 μl, were added to supernatant and lysate samples and plates were incubated 30 min at 37° C. […] Fluorescene was measured at 365 nm excitation and 440 nm emmission wavelengths. […]

RBL-2H3 cells [2] = experiment: Maximum tolerated concentration (cytotoxicity by lactate dehydrogenase release); assay type: cell-based, rat; details: for MTC (maximum tolerated concentration): highest concentration not causing cytotoxicity (LDH release); for SI (safety index): ratio between MTC and IC50
Text: The safety index (SI) of a test compound is the ratio between the maximum tolerated concentration and the IC50 and is used as a measure of the relative safety of the test compound.

DTH response in mice = assay type: in vivo; details: 24 h after challenge
Method: The anti-inflammatory and anti-allergic effects of compound 1a was assessed in a mouse model of skin delayed-type hypersensitivity (DTH) reactions and compared to a vehicle control and to the reference drug, dexamethasone. DTH reactions are antigen-specific cell-mediated immune responses, driven primarily by T helper type 1 (Th1) cells, similar to the tuberculin immunization response. The immune reaction induced by an ovalbumin challenge to animals previously sensitized with ovalbumin in Complete Freund's Adjuvant, is characterized by swelling (edema) at the site of challenge, e.g. the mouse ear. Dexamethasone, an anti-inflammatory steroid, reduces cell-mediated immune responses and was employed to validate the responsiveness of the assay to pharmacological treatment.
Female BALB/cJW mice were bred at the University of Lodz, Lodz, Poland and housed in groups of 8 in makrolon cages with a 12 h light-dark cycle. Mice were given free access to food (Agropol S. j., Motycz, Poland) and water.
Sensitization: The protein antigen, ovalbumin, was reconstituted in PBS at 4 mg/ml. An ovalbumin-CFA emulsion was prepared by mixing the protein solution with the CFA suspension at a ratio of 1:1, using two Luer-lock syringes. The emulsion was tested by putting a drop of emulsion onto PBS; if the emulsion remained as a tight droplet on the PBS, the emulsion was deemed ready. Mice were sensitized by subcutaneously injecting 25 μL of emulsion into each side of the tail (100 μg ovalbumin per mouse).
Challenge: On the sixth day after sensitization, DTH was elicited by challenging animals subcutaneously (gauge 30 needle, B. Braun Melsungen, Melsungen, Germany) in the left ears with 10 μL of a 1% suspension of heat-aggregated ovalbumin (HOVA) (100 μg ovalbumin per mouse). The right ears were administered subcutaneously with PBS and served to determine the individual differences in ear thicknesses. HOVA was prepared by heating a 5% solution of ovalbumin in saline for 1 h at 80° C. with occasional swirling. After cooling to room temperature and centrifugation (400 g, 10 min at 4° C.), the pellet was washed twice with saline, resuspended at 2% in PBS and aliquots stored at −30° C. Before injection, HOVA was diluted with an equal volume of PBS and sonicated. Ear thickness was measured with a precise spring-loaded caliper (Art. No. 7309, Mitutoyo, Kawasaki, Japan) before challenge, and 24 h after challenge.
Sensitization, challenge and ear thickness measurement were performed under anesthesia (ketamine 80 mg/kg plus xylazine 8 mg/kg, intraperitoneally).
The anti-inflammatory effects of compound 1a were compared to a vehicle control (0.5% methyl cellulose solution) and to the reference drug, dexamethasone. Test compound was given at 25 or 100 mg/kg orally by gavage (Art. No. 432093, Harvard Apparatus GmbH, March-Hugstetten, Germany) 16 h and 3 h before sensitization and then twice daily with the final dose given 3 h prior to ear challenge (a total of 14 administrations). Dexamethasone was given at 0.1 or 1 mg/kg orally by gavage 3 h before sensitization and once daily with the final dose given 3 h prior to antigen challenge (a total of 7 administrations). All administrations were given in a volume of 10 mL/kg.
To account for individual variability, the increase in right ear thickness, before and 24 h after administration of PBS, was subtracted from the HOVA-induced increase in left ear thickness. […]
Mean and standard deviation (SD) were calculated from individual ear edema values. […]

[3] = test system: allergic contact dermatitis response in mice; experiment: Allergic contact dermatitis (TDI) model in mice, mouse ear swelling test; assay type: in vivo
Method: The anti-inflammatory and anti-allergic effects of compound 1a were assessed in a mouse model of allergic contact dermatitis, a response driven primarily by T helper type 2 (Th2) cells. […] In this model, an allergic dermatitis response is obtained by sensitizing mice to TDI and subsequently challenging them with antigen by topical administration onto the ears. A quantitative assessment of anti-inflammatory and anti-allergic effects of topically or orally administered test compounds is possible by measuring the resulting ear swelling.
Female BALB/c-mice were obtained from Charles River (Sulzfeld, Germany) at age 8 weeks. All animals were housed in groups of eight per cage at 22° C. with a 12 h light/dark-cycle. Water and a standard diet (Altromin, Lage/Lippe, Germany) were available ad libitum. All animals were acclimatized for one week before experimental procedures were commenced.
Experimental procedures for BALB/c mice housing, TDI sensitization and challenge, and measurement of ear thickness were performed as previously described (Baumer et al., J Pharm Pharmacol. 55:1107-1114 (2003)) with the following modifications. For active sensitization, 100 μL of 5% (w/v) TDI was administered to the shaved and stripped abdominal epidermis on day one, and for the next three consecutive days, 50 μL of 5% (w/v) TDI was applied. The allergic reaction was boosted 21 days later by application of 50 μL of 0.5% (w/v) TDI. For the examination of test compound effects, the left ears were used for the TDI challenge (20 μL of 0.5% in acetone) and ear thickness measured 3 h before and 24 h after challenge.
Administration time: to determine optimal time for administration treatment groups were treated orally by gavage with 100 mg/kg of compound 1a (suspended in 0.5% tylose, 10 mL/kg) 1, 4 or 16 h before topical TDI challenge. One group was treated with 100 mg/kg miltefosine orally, 16 h before challenge (based on available data for optimal administration time for miltefosine) and vehicle treated mice received tylose (10 mL/kg) orally, 4 h before challenge.
Comparison with dexamethasone: one group of mice was treated orally with compound 1a at 100 mg/kg suspended in 0.5% tylose, 4 h before topical TDI challenge. Vehicle treated mice received 0.5% tylose orally 4 h before challenge. As a positive control, dexamethasone was administered in saline solution at 1 mg/kg or 3 mg/kg, 2 h and 30 min before challenge and 1 h after challenge. The dose and dosing scheme for dexamethasone was based on previous experience showing a maximal effect in this model.
[…] The solution was applied, 2 h before topical TDI challenge by administration of 10 μl onto each of the inner and outer surfaces of the left ears. A vehicle group (n=5) was treated with propyleneglycol. As a positive control, diflorasone diacetate was administered at 0.01% (low dose) and 0.05% (high dose) in 20 μl acetone, 2 h before challenge. A basal control group was left untreated.
Mean and standard error of the mean (SEM) were calculated from individual ear edema values. Statistical evaluation was a one-way analysis of variance (ANOVA) (if the test for normal distribution was passed) or the Kruskal-Wallis one-way ANOVA on Ranks (if the normal distribution test failed). Both were followed by a post-hoc test (Dunnett's method or Dunn's test, respectively). A p<0.05 was considered to be significant.

[4] = test system: collagen type II-induced arthritis (CIA) in mice; details: prophylactic, 0.3 mg/kg intraperitoneally once daily

Row | Structure (SMILES) | IC50 (RBL-2H3 cells [1]) [µM] | MTC (maximum tolerated concentration) (RBL-2H3 cells [2]) [µM] | SI (safety index) (RBL-2H3 cells [2]) | Inhibition of mouse ear swelling (DTH response in mice; 0.1 mg/kg orally once daily) [%] | Inhibition of mouse ear swelling (DTH response in mice; 1.0 mg/kg orally once daily) [%] | Inhibition of mouse ear swelling ([3]; comparison with dexamethasone, 1 mg/kg oral) | Inhibition of mouse ear swelling ([3]; comparison with dexamethasone, 1 mg/kg oral, listed as dexamethasone) [%] | Inhibition of mouse ear swelling ([3]; comparison with dexamethasone, 3 mg/kg oral) | Inhibition of mouse ear swelling ([3]; comparison with dexamethasone, 3 mg/kg oral, listed as dexamethasone) [%] | clinical signs of arthritis [4] | inhibitory efficacy relative to 1a at its optimal administration time of 4 h ([3]; 100 mg/kg oral, 16 h before challenge) [%] | Inhibition of mouse ear swelling ([3]; administration time study, 100 mg/kg oral, 16 h before TDI challenge)
1 | CCCCCCCCCCCCCCN(C)CC(=O)N(C)C[C@H](O)[C@@H](O)[C@H](O)[C@H](O)CO [Compound 1b, N-(2-(Methyl(tetradecyl)amino)acetyl)-N-methyl-D-glucamine hydrotrifluoroacetate] | 4.9 | 50 | 10.2 |  |  |  |  |  |  |  |  | 
2 | CCCCCCCCCCCCN(C)CC(=O)N(C)C[C@H](O)[C@@H](O)[C@H](O)[C@H](O)CO [Compound 1c, N-(2-(Methyl(dodecyl)amino)acetyl)-N-methyl-D-glucamine hydrotrifluoroacetate] | 12.3 | 100 | 8.1 |  |  |  |  |  |  |  |  | 
3 | CCCCCCCCCCCCCC[N+](C)(C)CC(=O)N(C)CC(O)CO (stereo not drawn) [Compound 1d, N-(2-(Dimethyl(tetradecyl)ammonio)acetyl)-N-methyl-2,3-dihydroxypropylamine trifluoroacetate] | 3.1 | 75 | 24.2 |  |  |  |  |  |  |  |  | 
4 | C[C@@H]1C[C@H]2[C@@H]3CCC4=CC(=O)C=C[C@]4(C)[C@@]3(F)[C@@H](O)C[C@]2(C)[C@@]1(O)C(=O)CO [Dexamethasone, reference compound] |  |  |  | 14 | 53 | 78.6*** % | 78 | 87.1*** % | 87 | nearly completely suppressed |  | 
5 | CCCCCCCCCCCCCCCCOP(=O)([O-])OCC[N+](C)(C)C [Miltefosine, reference compound] | 4.2 | 25 | 6.0 |  |  |  |  |  |  |  | 75 | 47% and 47.3^§ %
